Structures can show the parent of a compound that is named as a salt.
Legend:
Dutch Belted rabbits [1] = experiment: Local anesthetic effect by Cochet-Bonnet esthesiometry; type: in vivo; details: topical ocular administration, two drops of 35 μL/eye
Method: (§1) In the ocular tolerability study, a total of twelve male Dutch Belted rabbits divided randomly into four groups, were administered a placebo of phosphate buffered saline (PBS) or articaine at 4%, 8%, or 12% respectively. […] Ophthalmic examinations were performed on dose tolerability animals (Groups 1 through 4) predose and at 5, 10, and 20 minutes, and at 1, 2, 4, and 24 hours post the second eye drop administration in each eye using the modified Hackett-McDonald Scoring System. Following the modified Hackett-McDonald Scoring, local anesthetic effect was monitored in each eye by Cochet-Bonnet esthesiometry predose and at approximately 5, 10, and 20 minutes, and 1 hour following administration of the second eye drop in each eye. […] Topical ocular administration of articaine provided an anesthetic effect out to 20 minutes postdose with no notable tolerability issues.

in vivo = details: male, Dutch Belted, rabbit, topical or ocular
Method: (§2) In the ocular biodistribution study, after a minimum of 72 hours following the completion of the ocular tolerability study, the twelve rabbits were re-assigned to Group 5 for the ocular biodistribution study. Group 6 was added and consisted of 3 naïve rabbits. Group 6 was included to evaluate the potential carryover effect of articaine over a 72 hour period post treatment. Group 5 and 6 animals were administered articaine at 8% and 12% w/v, respectively. Doses were administered via bilateral topical administration (two drops of 35 μL/eye). Group 5 animals were sacrificed at 10 minutes, and 1, 4 and 8 hours post treatment (N=3 at each time point). Group 6 rabbits were sacrificed at 24, 48 and 72 hours post treatment (N=1 at each time point). Just prior to sacrifice blood samples were collected from each animal. Animals were then euthanized and aqueous humor, conjunctivas (palpebral and bulbar), lens, cornea, vitreous humor, iris-ciliary body [ICB], optic nerve, lacrimal gland, retina, and choroid were collected.
(§3) The objectives of this study were to determine the tolerability of placebo and Articaine HCl ophthalmic solutions at concentrations of 4, 8, and 12% (w/v) following topical eye drop administration, and to determine the ocular pharmacokinetics and biodistribution of articaine and articainic acid following topical eye drop administration of 8% Articaine HCl ophthalmic solution.

Dutch Belted rabbits [2] = type: in vivo; details: articaine 4%, 8%, or 12%, bilateral topical, two drops of 35 μL/eye, observed 24 hours
Method: Two subparts of one study were conducted on Dutch Belted rabbits, namely, an ocular tolerability study followed by an ocular biodistribution study.
as §1

[3] = in vivo; cited from earlier work
[4] = rabbit, in vivo
Method: as §2, §3

[5] = Ocular biodistribution / pharmacokinetics study
Method: as §2, §3

residual concentrations in ocular matrices ([5]; 12% articaine topical, 24, 48, and 72 hours postdose)	ratio of AUC0-last articainic acid over AUC0-last articaine ([5]; all other matrices)	ratio of AUC0-last articainic acid over AUC0-last articaine ([5]; cornea)	T1/2 (half-life) ([5]; plasma)	ratio of AUC0-last articainic acid over AUC0-last articaine ([5]; plasma)	Plasma Cmax ([5]; plasma, 8% articaine topical, two drops of 35 μL/eye) [ng/mL]	Molecule	anesthetic effect, time postdose (Dutch Belted rabbits [1]) [min]	Tmax (in vivo) [min]	Cmax (in vivo; Plasma Cmax) [ng/mL]	tolerability / treatment related adverse effects (Dutch Belted rabbits [2])	excreted as the metabolites [3] [%]	protein binding [3]	renally excreted unchanged [3]	systemic exposure, as indicated by plasma AUC [4]
						CCCNC(C)C(=O)Nc1c(C)csc1C(=O)OC (centres unmarked) [articaine, 4-methyl-3 (2-[propylamino]proprioamido)-2-thiophenecarboxylic acid, methyl ester hydrochloride]	20	10	457	well tolerated in all animals at concentrations up to 12% w/v	89	highly protein bound	Five to ten	minimal
Low residual concentrations	< 0.7	approximately 2	approximately 1.5 hours	approximately 2	217	Articainic acid								

— US11826347B2, “Anesthetic composition and method of anesthetizing the eye” (priority 2018, dated 2023)
